Assay results reported in US4550116A, “Piperidine derivatives” (Fordonal, S.A., priority 1983, dated 1985).

Columns and labels:
[1] = tested on: rat hindquarters; experiment: Rat hindquarter preparation, responses to high-K+ Krebs' solution; conditions: for TEST A RAT HINDQUARTERS % Inhibition: maximum percentage inhibition, 10^-7 M perfused for 20 minutes, 80 mM K+; for TEST A RAT HINDQUARTERS % Recovery: recovery of response at 1 h following perfusion with normal Krebs' solution, 10^-7 M; for duration of anti-vasoconstrictor effects, compared with terfenadine and cinnarizine: in vitro, rat hindquarter preparation
Experimental: A Rat hindquarter preparation
Responses of rat hindquarters perfused at constant rate were elicited by high -K^+ (80 mM) Krebs' solution. Test compounds (10^-7 M) were perfused for 20 minutes and then compound-free Krebs' perfusion was resumed for 40 min.

[2] = tested on: adrenaline; experiment: Protection against a lethal dose of adrenaline; format: in vivo, swiss mice; conditions: Mus musculus; 100 mg/kg oral, 1 h before 2 mg/kg intravenous adrenaline; mice; read-out: TEST D ANTI-ADRENALINE (animals surviving 15 min later)
Experimental: D. Protection against a lethal dose of adrenaline
Groups of 10 .male. swiss mice (25±3 g) were pretreated orally with compounds (100 mg/kg) suspended in carboxymethyl cellulose 1 h before receiving an intraveneous injection of 2 mg/kg adrenaline. The number of animals surviving 15 min later was noted and expressed as a percentage.

[3] = tested on: histamine H1-receptor; experiment: Antihistamine activity in anaesthetized rats (vasodepressor responses to histamine); format: in vivo, rat; conditions: 0.3 mg/kg i.v.; pentobarbitone anaesthetized rats
Experimental: B. Antihistamine activity in anaesthetized rats
Test compounds were administered to pentobarbitone anaesthetized rats at 0.3 mg/kg i.v. following stable, submaximal, vasodepressor responses to histamine.

[4] = in vivo; conditions: mouse, oral, mice, 48 hour period, unit from method b50, read-out: TEST E ACUTE TOXICITY (approximate LD50)
Experimental: Acute toxicity was assessed in groups of 3 mice given the test compounds suspended in 1% carboxymethylcellulose at 30, 100, 300 and 1000 mg/kg orally.

[5] = tested on: histamine aerosol; experiment: Histamine aerosol, protection of guinea-pigs; format: in vivo, guinea-pig
[6] = 0.3 mg/kg oral, 1 hour before 5 minute challenge of nebulized histamine, groups of 5

SMILES | TEST A RAT HINDQUARTERS % Inhibition [1] [%] | TEST A RAT HINDQUARTERS % Recovery [1] [%] | responders at 100 mg/kg [2] [%] | TEST B ANTIHISTAMINE IN RAT (inhibition of the histamine response) [3] | duration of anti-vasoconstrictor effects, compared with terfenadine and cinnarizine [1] | LD50 at 48 h [4] [mg/kg] | TEST C ANT[…] (protection) [5, 6] | H1-histamine receptor antagonist properties, orally against histamine aerosol ([5]; oral) | TEST C ANTIHISTAMINE AEROSOL (protection) [5, 6]
OC(CCCN1CCC(OC(c2ccccc2)c2ccccc2)CC1)c1ccc(C2CCCCC2)cc1 (stereo not drawn) [Compound 6, 4-diphenylmethoxy-α-(4-cyclohexylphenyl)-1-piperidinebutanol] | 57 | 55 | 20 | ++ (25-50%) |  |  |  |  | 
CC(C)(C)c1ccc(C(=O)CCCN2CCC(OC(c3ccc(F)cc3)c3ccc(F)cc3)CC2)cc1 [Compound 7, 4-di(4-fluorophenyl)methoxy-1-[3-(4-tert-butylbenzoyl)propyl]-piperidine] | 62 | 13 | 40 | +++ (50-75%) | much longer lasting |  |  |  | 
CCc1ccc(C(=O)CCCN2CCC(OC(c3ccccc3)c3ccccc3)CC2)cc1 [Compound 3, 4-diphenylmethoxy-1-[3-(4-ethylbenzoyl)propyl]-piperidine] | 65 | 50 | 20 | +++ (50-75%) | much longer lasting |  |  |  | 
CC(C)c1ccc(C(=O)CCCN2CCC(OC(c3ccccc3)c3ccccc3)CC2)cc1 [Compound 2, 4-diphenylmethoxy-1-[3-(4-isopropylbenzoyl)propyl]-piperidine] | 59 | 50 | 50 | +++ (50-75%) |  | > 1000 |  |  | 
CC(C)(C)c1ccc(C(=O)CCCN2CCC(OC(c3ccccc3)c3cccs3)CC2)cc1 (stereo not drawn) [Compound 5, 4-[α-(2-thienyl)benzyloxy]-1-[3-(4-tert-butylbenzoyl)propyl]-piperidine] | 65 | 40 |  | +++ (50-75%) | much longer lasting |  |  |  | 
O=C(CCCN1CCC(OC(c2ccccc2)c2ccccc2)CC1)c1ccc(CC2CC2)cc1 [Compound 4, 4-diphenylmethoxy-1-[3-(4-cyclopropylmethylbenzoyl)propyl]-piperidine] | 75 | 40 | 40 | ++ (25-50%) | much longer lasting |  |  |  | 
CC(C)(C)c1ccc(C(=O)CCCN2CCC(OC(c3ccccc3)c3ccccc3)CC2)cc1 [Compound 1, 4-diphenylmethoxy-1-[3-(4-tert-butylbenzoyl)propyl]-piperidine] |  | 56 | 50 |  |  |  | +++ (>50% protection) | extremely potent | 
CC(C)(C)c1ccc(C(O)CCCN2CCC(C(O)(c3ccccc3)c3ccccc3)CC2)cc1 (stereo not drawn) [TERFENADINE, α-[4-(1,1-dimethylethyl)phenyl]-4-(hydroxydiphenylmethyl)-1-piperidinebutanol, reference compound] | 44 | 100 | 20 |  |  | > 1000 |  |  | + (10-25%)
CC(C)(C)c1ccc(C(O)CCCN2CCC(OC(c3ccccc3)c3ccccc3)CC2)cc1 (stereo not drawn) [Compound 8, 4-diphenylmethoxy-α-(4-tert-butylphenyl)-1-piperidinebutanol] | 69 | 58 | 60 | ++ (25-50%) |  |  |  |  | ++ (25-50%)
